Test results reported in PMC3527569, “Anti-Inflammatory and Vasoprotective Activity of a Retroviral-Derived Peptide, Homologous to Human Endogenous Retroviruses: Endothelial Cell Effects” (PLoS ONE, 2012).
Where a SMILES comes first, the peptide text is derived from it. Bridges are numbered along the chain shown (N, C = ends). Roman numbers before positions name the chains, in order.

Assays:
TNF-α = experiment: LPS-induced TNF-α release by human PBMC (sandwich ELISA); format: cell-based; conditions: human PBMC + LPS (S. typhosa), 18-24 h, 37°C, peptide 10 nM-100 µM in triplicate, IC50 estimated from graph, representative set, one volunteer
Procedure: Cytokine Assays: One-hundred µL of PBMC (2 x 10^6/ml in Complete Medium) were added to each well of a flat-bottom, 96-well tissue culture plate. To each well was then added 50 µL of media or peptide (4X desired final concentration; in Complete Medium) and 50 µL of lipopolysaccharide (LPS; S. typhosa; Sigma, St. Louis, MO; 400 ng/ml Complete Medium). Each peptide was tested in triplicate at 5 log10 concentrations ranging from 100 µM to 10 nM. Plates were incubate 18-24 h at 37°C in 5% humidified CO2. Plates were then centrifuged and 100 µL of supernatant removed from each well and stored frozen at -80°C until assayed. Cytokines (TNF-α, IL-1β, IL-6, GM-CSF) were measured by sandwich ELISA assays (R & D Systems; Minneapolis, MN) using the manufacturer’s instructions. The released cytokine concentration was determined from a standard curve using recombinant cytokine provided with each kit.

LTB4 = experiment: Zymosan-induced LTB4 release by adherent human PBMC; format: cell-based; conditions: 1 h peptide then Zymosan 90 min, IC50 estimated from graph
Procedure: Platelet Activating Factor (PAF) and Leukotriene B4 (LTB4) Assays: PBMC were prepared as described above and adjusted to 3.3 x 10^6 cells/ml in RPMI-1640 medium containing 5 mg/ml HSA (Sigma, St. Louis, MO). To each well of a 48-well tissue culture plate was added 0.3 ml of cell suspension. The plate was incubated for 2 h at 37°C and 5% CO2 to allow cells to adhere. The wells were then washed 3X with HHBSS (Hank’s Balanced Salt Solution with 5 mg/ml HSA) at room temperature (RT). One-hundred seventy-five µL of HHBSS or test material in HHBSS was then added to each well and the plates incubated for 1 h at 37°C and 5% CO2. Samples were set up in quadruplicate. To each of duplicate wells for each sample was then added 175 µL of HHBSS or HHBSS containing 600 µg/ml of Zymosan (Sigma, St. Louis, MO). The plates were then incubated for 90 min at 37°C and 5% CO2. The plates were centrifuged and supernatants removed for quantitation of PAF or LTB4 according to the kit manufacturer’s (Amersham Pharmacia; Piscataway, NJ) instructions. The released PAF or LTB4 concentration was determined from a standard curve using standards provided with each kit.

Chemotaxis = experiment: Monocyte and neutrophil chemotaxis to FMLP (micro-chemotaxis chamber); format: cell-based, human; conditions: cells pre-incubated 60 min at 37°C with peptide (10 nM-100 µM), FMLP 10^-8 or 10^-9 M, 90 min, triplicate
Procedure: Monocyte and Neutrophil Chemotaxis: For monocyte chemotaxis, PBMC were prepared as described above but washed and resuspended to 2 x 10^6/ml in HBSS (10 mM HEPES, 0.5% BSA [low-endotoxin; Sigma, St. Louis, MO], pH 7.0). The percentage of monocytes in the cell preparation was determined by myeloperoxidase staining of fixed, cytospin-prepared slides and usually ranged between 15-25%. For neutrophil chemotaxis, neutrophils were prepared as described above and routinely contained 97-99% neutrophils. Effects of test materials on chemotaxis were measured using 48-well micro-chemotaxis chambers (Neuro-Probe; Cabin John, MD). Briefly, to 450 µL of cell suspension in a polypropylene centrifuge tube was added 50 µL of buffer or test material. Each sample was tested in triplicate. The tubes were then incubated for 60 min at 37°C in a shaking water bath. […] The stained filters were mounted on slides and the number of cells migrating though the filters determined under 600X magnification for 5 fields/well. Inhibition of chemotaxis was determined using that slide for which the positive control (untreated cells; either 10^-8 or 10^-9 M FMLP) gave the strongest response and was calculated in the following manner: […]

Platelet Aggregation = experiment: Platelet aggregation; format: cell-based, human; conditions: for IC50: human blood cells
[1] = system: nitrate in HUVEC supernatants; experiment: NO release (nitrate as nitrite) from HUVEC; format: cell-based, human; conditions: 50 µM peptide
Procedure: HUVEC were grown to 80–90% confluence in 12-well tissue culture plates using defined media provided by Cambrex and supplemented with 10% FBS. Triplicate wells were incubated with either media alone or media containing 50 µM of the indicated peptide. Supernatant samples were removed from each well at 6 h and 24 h post peptide addition and assayed for NO release as measured by the presence of nitrate (converted to nitrite) using a kit supplied by Oxford Biomedical Research (Rochester Hill, MI) according to the manufacturer's instructions.

H-LGGEKLFLLDGRNQLC-OH (disulfide (positions not given here)) [MN20050]
IC50 (TNF-α): > 100 µM
IC50 (LTB4): > 100 µM
IC50 (Chemotaxis): > 100 µM
IC50 (Platelet Aggregation): > 100 µM
nitrate release, percent of MN10021 ([1]; 6 h and ON incubations): ≤ 25%

CC(C)C[C@H](NC(=O)CNC(=O)CNC(=O)[C@H](CCC(=O)O)NC(=O)[C@H](CCCCN)NC(=O)[C@H](CC(C)C)NC(=O)[C@H](Cc1ccccc1)NC(=O)[C@H](CC(C)C)NC(=O)[C@H](CC(C)C)NC(=O)[C@H](CC(=O)O)NC(=O)[C@H](CC(C)C)NC(=O)CNC(=O)[C@H](CCCNC(=N)N)NC(=O)[C@H](CCCNC(=N)N)NC(=O)[C@H](CC(N)=O)NC(=O)[C@H](CCC(N)=O)NC(=O)[C@@H](N)CC(C)C)C(=O)N[C@@H](CSSC[C@H](NC(=O)[C@H](CC(C)C)NC(=O)CNC(=O)CNC(=O)[C@H](CCC(=O)O)NC(=O)[C@H](CCCCN)NC(=O)[C@H](CC(C)C)NC(=O)[C@H](Cc1ccccc1)NC(=O)[C@H](CC(C)C)NC(=O)[C@H](CC(C)C)NC(=O)[C@H](CC(=O)O)NC(=O)[C@H](CC(C)C)NC(=O)CNC(=O)[C@H](CCCNC(=N)N)NC(=O)[C@H](CCCNC(=N)N)NC(=O)[C@H](CC(N)=O)NC(=O)[C@H](CCC(N)=O)NC(=O)[C@@H](N)CC(C)C)C(=O)O)C(=O)O [MN10021] (I: H-LQNRRGLDLLFLKEGGLC-OH / II: H-LQNRRGLDLLFLKEGGLC-OH; disulfide I:18-II:18)
IC50 (TNF-α): 6.2 µM
IC50 (LTB4): 6.2 µM
IC50 (Chemotaxis): 0.25 µM
IC50 (Platelet Aggregation): 5 µM
effect on ADP- and epinephrine-induced human platelet aggregation (Platelet Aggregation; in vitro, data not shown): inhibit
nitrate release (as measured by nitrite assay) from HUVEC ([1]; 6 h or ON): induced nitrate release
